Data published in US11077126B2 (priority 2017, dated 2021).

Tests used:
[1] = system: transplanted tumor of human breast cancer MCF-7 cells; assay: Human breast cancer (MCF-7) in nude mice model; details: MCF-7 nude mice; 30 mg/kg i.g. 30 d
Description: (§1) Then cell concentration was adjusted to 1×10^7/ml with matrigel, and then each nude mouse was inoculated subcutaneously with 0.2 ml of cells at its right armpit and recorded as the first day of inoculation. […] Each group was continuously administered intragastrically for 30 days with a dose of 20 ml/kg. The mice were sacrificed the next day after drug withdrawal and the indicators were tested. The long diameter and short diameter of the tumor, and the body weight of each mouse were recorded every 3 days from drug administration to nude mouse sacrifice.
(§2) The body weight of the nude mice and the long diameter (a) and short diameter (b) of the transplanted tumor were measured every 3 days, and the tumor volume (v), relative tumor volume (RTV) and relative tumor proliferation rate (T/C) are calculated respectively according to the following formulas, wherein V=a×b^2/2; RTV=V/V0 (V0 is the tumor volume before administration, V is the tumor volume before sacrifice), and T/C (%)=treatment group RTV/model control group RTV×100%.
(§3) Each mouse was weighed and sacrificed. After the tumor was completely stripped off from the body of the mouse, the non-tumor tissues such as blood stains and fat were removed to weigh the tumor and calculate the tumor growth inhibition rate. The average tumor weight of each group of mice is used as an indicator of efficacy. Tumor growth inhibition rate (%)=(1−the average tumor weight of the treatment group/the average tumor weight of the model group)×100%.

[2] = system: transplanted tumor of human glioma U251 cells; assay: Human glioma in nude mice model; details: 30 mg/kg i.g. 30 d
Description: as §1, with “Then matrigel” for “Then”, “of” for “of the”
as §2, §3

[3] = system: transplanted tumor of human cervical cancer HeLa cells; assay: Human cervical cancer in nude mice model; details: 30 mg/kg i.g. 30 d
Description: as §1, with “Then the cells were subjected to trypsinization, centrifugation, and supernatant removal. Then” for “Then”, “matrigel,” for “matrigel, and”
as §2
as §3, with “Calculation of Tumor Growth Inhibition Rate Each” for “Each”

[4] = system: transplanted tumor of human esophageal cancer TE-1 cells; assay: Human esophageal cancer in nude mice model; details: 30 mg/kg
Description: as §1, §2, §3

[5] = system: transplanted tumor of human leukemia HL-60 cells; assay: Human leukemia in nude mice model; details: HL-60 nude mice; 30 mg/kg i.g. 30 d
Description: as §1, with “HL-60 cells in a logarithmic growth phase were taken and subjected to a trypan blue exclusion experiment showing that the cell viability was more than 95%, then the cells were subjected to trypsinization, centrifugation, and supernatant removal. Then” for “Then”
as §2, §3

[6] = system: transplanted tumor of human renal cell adenocarcinoma 769-P cells; assay: Human renal cell adenocarcinoma in nude mice model; details: 769-P nude mice; 30 mg/kg i.g. 30 d
Description: as §1, with “of” for “of the”
as §2, §3

O=P1(N(CCCl)CCCl)NCCCO1 (centres unmarked) [Cyclophosphamide]
Body Weight (g)(d1) [1]: 21.93 ± 0.89 g
Body Weight (g)(d30) [1]: 19.79 ± 1.47 g
Inhibition Rate (%) [1]: 62.3%
Relative Tumor Proliferation Rate(T/C) [1]: 30.58%
Relative Tumor Volume (RTV) [1]: 5.00 ± 1.27
Tumor Volume (mm3) (d1) [1]: 127.68 ± 14.89 mm3
Tumor Volume (mm3) (d30) [1]: 638.62 ± 123.11 mm3
Tumor Weight [1]: 0.72 ± 0.21 g
Body Weight (g)(d1) [2]: 22.24 ± 1.53 g
Body Weight (g)(d30) [2]: 19.92 ± 1.68 g
Inhibition Rate (%) [2]: 79.74%
Relative Tumor Proliferation Rate(T/C) [2]: 56.84%
Relative Tumor Volume (RTV) [2]: 5.75 ± 1.22
Tumor Volume (mm3) (d1) [2]: 98.40 ± 25.25 mm3
Tumor Volume (mm3) (d30) [2]: 566.33 ± 39.32 mm3
Tumor Weight [2]: 0.42 ± 0.10 g
Body Weight (g)(d1) [3]: 20.04 ± 0.68 g
Body Weight (g)(d30) [3]: 19.20 ± 0.18 g
Inhibition Rate (%) [3]: 72.48%
Relative Tumor Proliferation Rate(T/C) [3]: 24.35%
Relative Tumor Volume (RTV) [3]: 3.44 ± 0.93
Tumor Volume (mm3) (d30) [3]: 397.88 ± 103.60 mm3
Tumor Weight [3]: 0.49 ± 0.39 g
Relative Tumor Proliferation Rate(T/C) [4]: 52.01%
Relative Tumor Volume (RTV) [4]: 9.05 ± 2.58
Tumor Weight [4]: 0.66 ± 0.28 g
Inhibition Rate (%) ([4]; by tumor weight): 72.12%
Body Weight (g)(d1) ([4]; d1): 22.78 ± 1.35 g
Tumor Volume (mm3) (d1) ([4]; d1): 92.02 ± 7.06 mm3
Body Weight (g)(d30) ([4]; d30): 21.32 ± 1.63 g
Tumor Volume (mm3) (d30) ([4]; d30): 830.30 ± 34.31 mm3
Body Weight (g)(d1) [5]: 22.66 ± 1.11 g
Body Weight (g)(d30) [5]: 20.52 ± 1.73 g
Inhibition Rate (%) [5]: 81.37%
Relative Tumor Proliferation Rate(T/C) [5]: 58.63%
Relative Tumor Volume (RTV) [5]: 6.76 ± 2.53
Tumor Volume (mm3) (d1) [5]: 209.22 ± 50.12 mm3
Tumor Volume (mm3) (d30) [5]: 1415.16 ± 320.21 mm3
Tumor Weight [5]: 1.46 ± 0.24 g
Body Weight (g)(d1) [6]: 22.48 ± 0.91 g
Body Weight (g)(d30) [6]: 21.28 ± 0.39 g
Inhibition Rate (%) [6]: 76.09%
Relative Tumor Proliferation Rate(T/C) [6]: 19.68%
Relative Tumor Volume (RTV) [6]: 4.19 ± 1.29
Tumor Volume (mm3) (d1) [6]: 178.48 ± 28.78 mm3
Tumor Volume (mm3) (d30) [6]: 747.83 ± 138.57 mm3
Tumor Weight [6]: 0.61 ± 0.15 g
